Source: patent US12055549B2, “Methods of use of anti-TNFα antibodies” (UCB Biopharma SRL, priority 2015, dated 2024)

Biological target: TNFα (Homo sapiens, UniProt P01375)
Assay: SPR on Biacore 4000, immobilised soluble TNFα
Format: binding
Conditions: concentration of up to 100 μM
Experimental: In another experiment, BIO8898 was tested against the immobilised soluble form of CD40L and the soluble form of TNFα by SPR on a Biacore 4000 machine.

TNFα, sequence (P01375 77-233 limits assumed): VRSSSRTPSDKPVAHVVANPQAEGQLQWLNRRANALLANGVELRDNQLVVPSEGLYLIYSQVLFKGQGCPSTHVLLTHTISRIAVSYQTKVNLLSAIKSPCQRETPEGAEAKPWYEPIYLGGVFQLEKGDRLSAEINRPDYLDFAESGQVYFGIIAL

O=C(NCc1cccc(-c2ccccc2)c1)c1cc(-c2cc(C(=O)NC(C(=O)O)C3CCCCC3)nc(C(=O)N3CCCC3CN3CCCC3)c2)cc(C(=O)N2CCCC2CN2CCCC2)n1 (stereo not shown) [BIO8898]
binding to TNFα: found not to bind to TNFα
